Assay results reported in paper PMC10702441 (2023).

Key:
Test in all cases: ITC
[1] = system: Aai full-length NAD+-I (nadA) riboswitch, 100-mer (RNA, riboswitch) GGCUGCAACAUCCCCGUGGGUUGGACGGCGAAAGCCGUAGCGAAUCCACUGCAGCCUGUAUGGCUUUCAACAUCCCCGUCCGCGAAAGCGGACUGAAGGC
[2] = system: Aca domain I split construct (dom I; 28-mer + 22-mer) (RNA, riboswitch) GGGCGCAACAUCCCCGCCGGUUGGGCGC/GCGCAGUGAACCGGCUGCGUCC; settings: 100 mM NaCl, 20 mM MgCl2, 0.10 M Na-HEPES pH 7.0, 10 °C, 1:1 model, apparent
[3] = system: Aca domain II split construct (dom II; 28-mer + 20-mer) (RNA, riboswitch) GCUUUCAACAUCCCCGUCCCGGGCGGAG/CUCCGCAGUGGACUGAAGGC; settings: 100 mM NaCl, 20 mM MgCl2; 0.10 M Na-HEPES pH 7.0, 10 °C; ligand in syringe 0.40–0.63 mM
[4] = 100 mM NaCl, 20 mM MgCl2, 0.10 M Na-HEPES pH 7.0, 10 °C, 1:1 model, apparent

Row | KD [1, 4] | KD ([1]; K+ (KCl replacing NaCl), KCl-containing ITC buffer, 10 °C, no significant change from Na+) | KD [2] | binding [3] | KD ([2]; error printed ± 7.1) | Structure (SMILES)
1 | 31.5 ± 1.5 µM | 18.2 ± 2.1 µM | 24.6 ± 8.4 µM | no | – | NC(=O)c1ccc[n+]([C@@H]2O[C@H](COP(=O)(O)OP(=O)(O)OC[C@H]3O[C@@H](n4cnc5c(N)ncnc54)[C@H](O)[C@@H]3O)[C@@H](O)[C@H]2O)c1
2 | 59.7 ± 2.2 µM | – | 55.5 ± 3.6 µM | no | – | NC(=O)C1=CN([C@@H]2O[C@H](COP(=O)(O)OP(=O)(O)OC[C@H]3O[C@@H](n4cnc5c(N)ncnc54)[C@H](O)[C@@H]3O)[C@@H](O)[C@H]2O)C=CC1
3 | 11.0 ± 3.5 µM | – | – | – | – | Nc1ncnc2c1ncn2[C@@H]1O[C@H](COP(=O)(O)OP(=O)(O)OP(=O)(O)O)[C@@H](O)[C@H]1O
4 | 9.7 ± 1.1 µM | – | 11.1 ± 0.6 µM | – | – | Nc1ncnc2c1ncn2[C@@H]1O[C@H](COP(=O)(O)OP(=O)(O)O)[C@@H](O)[C@H]1O
5 | 30.2 ± 1.2 µM | – | – | – | 21.9 ± 8.4 µM | NC(=O)c1ncn([C@@H]2O[C@H](COP(=O)(O)OP(=O)(O)OC[C@H]3O[C@@H](n4cnc5c(N)ncnc54)[C@H](O)[C@@H]3O)[C@@H](O)[C@H]2O)n1
